Key:
Akt = Akt phosphorylation in PC12 cells (Western blot); assay type: cell-based; set-up: unit not given here; conditions: 500 nM, 30′
Experimental: For immunoprecipitation experiments PC12 or HEK293T, cells were used when at 70–80% confluent. Cells were starved of serum for 4 h and subsequently treated with 100 ng/mL NGF or 500 nM of compound ENT-A013 for 30′. Cells were then lysed in Pierce™ IP Lysis Buffer (87788, Thermo Fischer Scientific, Waltham, MA, USA) containing proteases (539138, Calbiochem, Darmstadt, Germany) and phosphatase inhibitors (524629, Calbiochem, Darmstadt, Germany). Lysates were then immunoprecipitated overnight at 4 °C with TrkA antibody (1:100, 06-574, Sigma-Aldrich, St. Louis, MO, USA) (Table S1) or p75^NTR antibody (1:100, ab6172, Abcam plc., Cambridge, UK) followed by 4 h incubation with protein G-plus agarose beads (sc-2002, Santa Cruz Biotechnology, Inc., Dallas, TX, USA). Beads were then collected, washed 3X with lysis buffer, resuspended in SDS loading buffer and subjected to Western blot against phosphorylated Tyrosine (1:1000, BAM1676, R&D Systems, Inc., Minneapolis, MN, USA) or Traf6 antibody (1:2000, ab33915, Abcam, plc., Cambridge, UK). […]

Erk1/2 = Erk1/2 phosphorylation in PC12 cells (Western blot); assay type: cell-based
Experimental: For immunoprecipitation experiments PC12 or HEK293T, cells were used when at 70–80% confluent. Cells were starved of serum for 4 h and subsequently treated with 100 ng/mL NGF or 500 nM of compound ENT-A013 for 30′. Cells were then lysed in Pierce™ IP Lysis Buffer (87788, Thermo Fischer Scientific, Waltham, MA, USA) containing proteases (539138, Calbiochem, Darmstadt, Germany) and phosphatase inhibitors (524629, Calbiochem, Darmstadt, Germany). Lysates were then immunoprecipitated overnight at 4 °C with TrkA antibody (1:100, 06-574, Sigma-Aldrich, St. Louis, MO, USA) (Table S1) or p75^NTR antibody (1:100, ab6172, Abcam plc., Cambridge, UK) followed by 4 h incubation with protein G-plus agarose beads (sc-2002, Santa Cruz Biotechnology, Inc., Dallas, TX, USA). Beads were then collected, washed 3X with lysis buffer, resuspended in SDS loading buffer and subjected to Western blot against phosphorylated Tyrosine (1:1000, BAM1676, R&D Systems, Inc., Minneapolis, MN, USA) or Traf6 antibody (1:2000, ab33915, Abcam, plc., Cambridge, UK). Whole cell lysates were subjected to Western blot against TrkA (1:1000, 06-574, Sigma-Aldrich, St. Louis, MO, USA), phosphorylated TrkB (1:1000, ABN1381, Sigma-Aldrich, St. Louis, MO, USA), phosphorylated TrkC (1:1000, STJ90960, St John’s Laboratory, Ltd., London, UK), TrkB (1:1000, 07-225-I, Sigma-Aldrich, St. Louis, MO, USA), TrkC (1:1000, C44H5, Cell Signaling Technology, Danvers, MA, USA), p75 (1:1000, 839701, Biolegend, Inc., San Diego, CA, USA), Traf6 (1:2000, ab33915, Abcam, plc., Cambridge, UK) phosphorylated Akt (1:1000, 9721S, Cell Signaling Technology, Danvers, MA, USA), phosphorylated Erk1/2 (1:1000, 9101S, Cell Signaling Technology, Danvers, MA, USA), total Akt (1:1000, 4691S Cell Signaling Technology, Danvers, MA, USA) and total Erk1/2 (1:1000, 4695S, Cell Signaling Technology, Danvers, MA, USA).

[1] = test system: Primary hippocampal neurons; assay: TUNEL assay in primary hippocampal neurons treated with oligomeric Aβ; assay type: cell-based, mouse; conditions: 5 μM oligomeric Aβ, 500 nM every 24 h, 48 h
Experimental: Primary hippocampal neurons were isolated from E17.5 mouse embryos (C57BL/6J, The Jackson Laboratory, Bar Harbor, ME, USA) as previously described and cultured with Neurobasal medium containing 2% B27, 1X GlutaMax, 10 mM HEPES and 1% PenStrep. Cells were maintained in a humified incubator at 37 °C and 5% CO2. For TUNEL assay, cells were left in culture for 16–18 days and then treated with 5 μM oligomeric Aβ along with ENT-A013 (500 nM, every 24 h) for 48 h. Cells were then fixed with 4% PFA and labelled with TUNEL (F. Hoffmann–La Roche Ltd., Basel, Switzerland, cat# 11684795910) following the manufacturer’s protocol. Subsequently, cells were immunostained against Tuj1 and imaged with confocal microscopy. For synaptic plasticity assay, cells were left in culture for 16–18 days and then treated with 5 μM oligomeric Aβ along with ENT-A013 (500 nM) for 4 h. Cells were then fixed with 4% PFA and immunostained against Tuj1 and Synaptophysin (1:1000, PA1-1043, Invitrogen, Waltham, MA, USA), anti-mouse Alexa fluor 488 (1:1000, A-11029, Invitrogen, Waltham, MA, USA) and anti-rabbit Alexa fluor 546 (1:1000, A10040, Invitrogen, Waltham, MA, USA). Images were acquired using confocal microscopy and the total area of synaptophysin positive puncta was measured and normalized to Tuj1 total area. […]

With `CC12CCC(O)CC1=CCC1C2CCC2(C)C1CCC21CC1C=CBr` [ENT-A013, (2′R,3S,17S)-2′-(2-Bromovinyl)-5-Androstene-17,1′-Cyclopropan-3-ol] the Akt phosphorylation (Akt) was 3.8 ± 1.15, the “time Erk1/2 phosphorylation is sustained after treatment” value (Erk1/2) was “up to 1 hr” and the Erk1/2 phosphorylation (Erk1/2; 500 nM, 30′) was 2.5 ± 0.6 % of control FC. For the same compound, the “apoptosis (TUNEL)” value [1] was 29.8% ± 2.5%.
